Measured values published in article PMC8185074, “Anchor extension: a structure-guided approach to design cyclic peptides targeting enzyme active sites” (Nature Communications, 2021).
Read-outs that look alike come from different tables or passages of the source. Peptide text beside a SMILES is read from it.

Assays:
Assay type in all cases: biochemical
HDAC2 [1] = biological target: T1, HDAC2 (Homo sapiens, UniProt Q92769); experiment: Initial HDAC2 IC50 estimate (BPS Biosciences HDAC fluorogenic assay kit)
T1 construct: purchased Reaction Biology Corporation (assay run by the CRO)
T1 sequence (Q92769 whole entry): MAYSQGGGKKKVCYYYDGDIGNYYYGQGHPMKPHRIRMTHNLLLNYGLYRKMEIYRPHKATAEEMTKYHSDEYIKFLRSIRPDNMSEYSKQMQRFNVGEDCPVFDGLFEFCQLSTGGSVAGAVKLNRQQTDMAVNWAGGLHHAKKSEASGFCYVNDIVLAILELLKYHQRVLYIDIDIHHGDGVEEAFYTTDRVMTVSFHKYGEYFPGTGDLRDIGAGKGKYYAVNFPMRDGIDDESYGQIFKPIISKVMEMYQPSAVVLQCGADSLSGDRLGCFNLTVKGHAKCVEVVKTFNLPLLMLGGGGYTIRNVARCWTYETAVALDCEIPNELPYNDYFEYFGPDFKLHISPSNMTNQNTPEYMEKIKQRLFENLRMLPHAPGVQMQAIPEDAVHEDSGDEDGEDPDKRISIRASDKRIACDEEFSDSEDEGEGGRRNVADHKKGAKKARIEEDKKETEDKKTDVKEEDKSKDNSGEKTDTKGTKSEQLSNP
Procedure: Initial IC50 values were estimated using HDAC fluorogenic assay kits from BPS Biosciences (HDAC2, HDAC4, and HDAC6) following the protocol described in the kit. All the measures were performed in duplicates or triplicates. These measurements were done either on full range of concentrations (1:10 dilution from 1 µM to 100 pM) or on two concentrations only (20 nM and 200 nM) as an estimate of the range. […] Source Data are provided as a Source Data file.

HDAC6 = biological target: T2, HDAC6 (Homo sapiens, UniProt Q9UBN7); experiment: HDAC6 inhibition, full IC50 measurement (Reaction Biology; fluorogenic p53 peptide RHKK(Ac)AMC); settings: single trial
T2 construct: purchased Reaction Biology Corporation (assay run by the CRO)
T2 sequence (Q9UBN7 1-1215): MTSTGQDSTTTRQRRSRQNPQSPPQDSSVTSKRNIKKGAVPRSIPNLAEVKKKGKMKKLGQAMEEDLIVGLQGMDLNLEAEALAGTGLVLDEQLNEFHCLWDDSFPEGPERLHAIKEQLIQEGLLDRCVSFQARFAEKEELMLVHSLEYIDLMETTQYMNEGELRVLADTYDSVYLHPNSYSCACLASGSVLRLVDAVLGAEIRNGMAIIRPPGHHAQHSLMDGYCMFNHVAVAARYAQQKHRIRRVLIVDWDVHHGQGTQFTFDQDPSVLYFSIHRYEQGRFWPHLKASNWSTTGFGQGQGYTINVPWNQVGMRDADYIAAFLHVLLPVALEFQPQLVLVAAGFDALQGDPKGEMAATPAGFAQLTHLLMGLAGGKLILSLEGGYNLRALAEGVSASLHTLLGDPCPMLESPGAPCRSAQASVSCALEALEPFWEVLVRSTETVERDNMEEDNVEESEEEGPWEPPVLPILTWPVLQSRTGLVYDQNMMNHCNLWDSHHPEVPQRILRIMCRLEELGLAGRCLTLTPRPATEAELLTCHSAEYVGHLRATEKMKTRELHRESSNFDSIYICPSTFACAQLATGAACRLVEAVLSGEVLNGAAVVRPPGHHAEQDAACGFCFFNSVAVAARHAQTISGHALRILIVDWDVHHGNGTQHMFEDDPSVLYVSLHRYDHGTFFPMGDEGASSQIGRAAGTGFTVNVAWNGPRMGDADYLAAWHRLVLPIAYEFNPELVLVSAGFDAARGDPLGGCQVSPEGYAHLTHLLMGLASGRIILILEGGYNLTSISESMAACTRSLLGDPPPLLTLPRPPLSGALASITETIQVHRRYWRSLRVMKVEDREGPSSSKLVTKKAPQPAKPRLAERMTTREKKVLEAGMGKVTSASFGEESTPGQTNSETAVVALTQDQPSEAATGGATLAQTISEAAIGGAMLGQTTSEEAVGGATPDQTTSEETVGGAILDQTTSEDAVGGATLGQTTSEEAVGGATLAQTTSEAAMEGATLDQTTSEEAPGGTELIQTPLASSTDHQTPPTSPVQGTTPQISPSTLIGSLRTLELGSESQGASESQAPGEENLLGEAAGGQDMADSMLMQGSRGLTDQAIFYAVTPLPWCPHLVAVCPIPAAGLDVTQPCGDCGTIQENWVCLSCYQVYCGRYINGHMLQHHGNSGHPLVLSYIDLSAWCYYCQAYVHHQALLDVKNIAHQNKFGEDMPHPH
Procedure: (§1) The assay was performed using 50 μM fluorogenic peptide from p53 residues 379-382 [RHKK(Ac)AMC] in a base reaction buffer of 50 mM Tris-HCl at pH 8.0, 137 mM NaCl, 2.7 mM KCl, 1 mM MgCl2, and freshly added 1 mg/ml BSA and 1% DMSO. Peptides were first dissolved in DMSO and then added to the reaction mixture with the enzyme using acoustic technique, enough to reach the desired concentration for that assay point. Peptide concentrations were calculated based on mass of lyophilized peptide and its molecular weight. The substrate was then added and incubated for 1 hour at 30 °C in a sealed container. After the incubation, developer was added to stop the reaction and develop color. Kinetic measurements were then performed for 20 min with Envision with 5 min intervals (Ex/Em = 360/460 nm). The endpoint after plateau was taken for IC50 measurement.
(§2) In cases where duplicate measures are used, average data is reported in the main text or Supplementary Tables.

HDAC3 = biological target: T3, HDAC3 (Homo sapiens, UniProt O15379); experiment: HDAC3 inhibition, full IC50 measurement (Reaction Biology; fluorogenic p53 peptide RHKK(Ac)AMC); settings: single trial
T3 construct: purchased Reaction Biology Corporation (assay run by the CRO)
T3 sequence (O15379 whole entry): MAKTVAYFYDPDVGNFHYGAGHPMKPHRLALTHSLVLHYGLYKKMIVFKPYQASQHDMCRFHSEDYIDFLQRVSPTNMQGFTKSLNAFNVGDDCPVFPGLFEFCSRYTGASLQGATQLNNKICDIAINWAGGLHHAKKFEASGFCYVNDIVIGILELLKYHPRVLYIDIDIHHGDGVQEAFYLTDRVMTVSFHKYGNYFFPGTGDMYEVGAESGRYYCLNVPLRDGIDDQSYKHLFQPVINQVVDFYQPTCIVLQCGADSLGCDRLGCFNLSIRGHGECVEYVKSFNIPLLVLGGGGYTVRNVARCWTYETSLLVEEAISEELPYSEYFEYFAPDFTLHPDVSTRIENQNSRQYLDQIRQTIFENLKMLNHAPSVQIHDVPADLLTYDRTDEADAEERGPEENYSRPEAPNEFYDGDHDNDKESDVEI
T3 sequence (Q9Y618 395-489 partner limits assumed): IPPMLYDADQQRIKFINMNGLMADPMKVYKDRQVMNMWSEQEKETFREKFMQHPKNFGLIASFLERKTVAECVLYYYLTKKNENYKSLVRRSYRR
Procedure: as §1, §2

HDAC2 [2] = biological target: T1, HDAC2; experiment: HDAC2 inhibition, full IC50 measurement (Reaction Biology; fluorogenic p53 peptide RHKK(Ac)AMC); settings: for HDAC2 activity raw data (signal): single trial
Method in brief: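 Inhibitory peptides were acoustically dispensed with enzyme, then substrate added; 1 h at 30 °C. Developer stopped reaction; plateau endpoint fluorescence (360/460 nm) gave IC50.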

[3] = Supplementary Dataset 2, read-out: HDAC2 activity (initial activity)

Compound	IC50 (HDAC2 [1]; [3]) [µM]	HDAC6 activity raw data (signal) (HDAC6; Conc. 1.00E-04 M)	HDAC6 activity raw data (signal) (HDAC6; Conc. 1.11E-05 M)	HDAC6 activity raw data (signal) (HDAC6; Conc. 1.23E-06 M)	HDAC6 activity raw data (signal) (HDAC6; Conc. 1.37E-07 M)	HDAC6 activity raw data (signal) (HDAC6; Conc. 1.52E-08 M)	HDAC6 activity raw data (signal) (HDAC6; Conc. 3.33E-05 M)	HDAC6 activity raw data (signal) (HDAC6; Conc. 3.70E-06 M)	HDAC6 activity raw data (signal) (HDAC6; Conc. 4.12E-07 M)	HDAC6 activity raw data (signal) (HDAC6; Conc. 4.57E-08 M)	HDAC6 activity raw data (signal) (HDAC6; Conc. 5.08E-09 M)	HDAC3 activity raw data (signal) (HDAC3; Conc. 1.00E-04 M)	HDAC3 activity raw data (signal) (HDAC3; Conc. 1.11E-05 M)	HDAC3 activity raw data (signal) (HDAC3; Conc. 1.23E-06 M)	HDAC3 activity raw data (signal) (HDAC3; Conc. 1.37E-07 M)	HDAC3 activity raw data (signal) (HDAC3; Conc. 1.52E-08 M)	HDAC3 activity raw data (signal) (HDAC3; Conc. 3.33E-05 M)	HDAC3 activity raw data (signal) (HDAC3; Conc. 3.70E-06 M)	HDAC3 activity raw data (signal) (HDAC3; Conc. 4.12E-07 M)	2-Selectivity: fold potency for HDAC2 over HDAC6 (HDAC2 [2]) [fold]	also measured
NCCCC[C@@H]1NC(=O)[C@@H](CC(N)=O)NC(=O)[C@H]2CCCN2C(=O)[C@@H](Cc2c[nH]cn2)NC(=O)[C@H](Cc2ccc(O)cc2)NC(=O)[C@H](CCCCCS)NC(=O)[C@H](CCc2ccccc2)NC1=O [des3.2.4, SHA-Tyr-dHis-dPro-dAsn-Lys-C27] (HELM PEPTIDE1{K.[O=C([C@H](CCc1ccccc1)N[*:1])[*:2]].[O=C([C@H](CCCCCS)N[*:1])[*:2]].Y.[dH].[dP].[dN]}$PEPTIDE1,PEPTIDE1,1:R1-7:R2$$$V2.0)	0.054	-2801	-1849	4374	43765	190706	-563	-1989	12736	97833	278125	-9402	593	35444	204357	337866	-3894	11659	78893	0.43	HDAC3 activity raw data (signal) (HDAC3; Conc. 4.57E-08 M): 259781; HDAC3 activity raw data (signal) (HDAC3; Conc. 5.08E-09 M): 427232; HDAC2 activity raw data (signal) (HDAC2 [2]; Conc. 1.00E-04 M): -2073; HDAC2 activity raw data (signal) (HDAC2 [2]; Conc. 1.11E-05 M): 877; HDAC2 activity raw data (signal) (HDAC2 [2]; Conc. 1.23E-06 M): 16887; HDAC2 activity raw data (signal) (HDAC2 [2]; Conc. 1.37E-07 M): 156676; HDAC2 activity raw data (signal) (HDAC2 [2]; Conc. 1.52E-08 M): 359436; HDAC2 activity raw data (signal) (HDAC2 [2]; Conc. 3.33E-05 M): -5431; HDAC2 activity raw data (signal) (HDAC2 [2]; Conc. 3.70E-06 M): -8111; HDAC2 activity raw data (signal) (HDAC2 [2]; Conc. 4.12E-07 M): 83192; HDAC2 activity raw data (signal) (HDAC2 [2]; Conc. 4.57E-08 M): 254992; HDAC2 activity raw data (signal) (HDAC2 [2]; Conc. 5.08E-09 M): 399941
N=C(N)NCCC[C@H]1NC(=O)[C@H]2CCCN2C(=O)[C@@H](Cc2c[nH]cn2)NC(=O)[C@H](Cc2ccc(O)cc2)NC(=O)[C@H](CCCCCS)NC(=O)[C@H](CCc2ccccc2)NC(=O)[C@H](CCCCN)NC1=O [des3.2.5, SHA-Tyr-dHis-dPro-dArg-Lys-C27] (HELM PEPTIDE1{K.[O=C([C@H](CCc1ccccc1)N[*:1])[*:2]].[O=C([C@H](CCCCCS)N[*:1])[*:2]].Y.[dH].[dP].[dR]}$PEPTIDE1,PEPTIDE1,1:R1-7:R2$$$V2.0)	0.095	-6596	-4177	2489	40408	187931	-7167	1736	17454	101146	300973	-14418	6191	36941	210610	383928	-3999	13003	93966	0.40	HDAC3 activity raw data (signal) (HDAC3; Conc. 4.57E-08 M): 285917; HDAC3 activity raw data (signal) (HDAC3; Conc. 5.08E-09 M): 409923; HDAC2 activity raw data (signal) (HDAC2 [2]; Conc. 1.00E-04 M): -10024; HDAC2 activity raw data (signal) (HDAC2 [2]; Conc. 1.11E-05 M): -3664; HDAC2 activity raw data (signal) (HDAC2 [2]; Conc. 1.23E-06 M): 23341; HDAC2 activity raw data (signal) (HDAC2 [2]; Conc. 1.37E-07 M): 186535; HDAC2 activity raw data (signal) (HDAC2 [2]; Conc. 1.52E-08 M): 378556; HDAC2 activity raw data (signal) (HDAC2 [2]; Conc. 3.33E-05 M): -4061; HDAC2 activity raw data (signal) (HDAC2 [2]; Conc. 3.70E-06 M): 7985; HDAC2 activity raw data (signal) (HDAC2 [2]; Conc. 4.12E-07 M): 87059; HDAC2 activity raw data (signal) (HDAC2 [2]; Conc. 4.57E-08 M): 320609; HDAC2 activity raw data (signal) (HDAC2 [2]; Conc. 5.08E-09 M): 410566
N=C(N)NCCC[C@@H]1NC(=O)[C@@H](CCCNC(=N)N)NC(=O)[C@H]2CCCN2C(=O)[C@@H](CO)NC(=O)[C@H](Cc2ccc(O)cc2)NC(=O)[C@H](CCCCCS)NC(=O)[C@H](CCc2ccccc2)NC(=O)[C@@H](CCC(N)=O)NC(=O)[C@H](CC(=O)O)NC1=O [des3.3.2, SHA-Tyr-dSer-dPro-dArg-Arg-Asp-dGln-C27] (HELM PEPTIDE1{D.[dQ].[O=C([C@H](CCc1ccccc1)N[*:1])[*:2]].[O=C([C@H](CCCCCS)N[*:1])[*:2]].Y.[dS].[dP].[dR].R}$PEPTIDE1,PEPTIDE1,1:R1-9:R2$$$V2.0)	0.05	–	–	–	–	–	–	–	–	–	–	–	–	–	–	–	–	–	–	3	IC50 (HDAC2 [1]; Supp. Table 4, rough estimates, for promising hits full measurements, read-out: HDAC2 activity (initial values for HDAC2 IC50)): 0.057 µM
